# Measured values published in PMC10435442, “Developing multitarget coumarin based anti-breast cancer agents: synthesis and molecular modeling study” (Scientific Reports, 2023).
# Like-named read-outs stand apart in the source and are kept apart here.
# Tests used:
# in vitro = settings: human, MCF-10A cells (nonmalignant breast)
# MCF-7 = assay: MTT cytotoxicity assay, MCF-7; settings: for IC50: Homo sapiens; for anti-proliferative activity against MCF-7 (in words): SAR discussion
# MDA-MB-231 = assay: MTT cytotoxicity assay, MDA-MB-231; settings: for IC50: Homo sapiens; for % viability: MDA; for anti-proliferative activity against MDA-MB-231 (in words): SAR discussion
# MCF-10A = assay: MTT cytotoxicity assay, nonmalignant MCF-10A; settings: read-out: MCF-10A IC50; MTT, nonmalignant MCF-10A;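 also: MTT assay with absorbance read at 570 nm after 48 h exposure of cells to serial compound concentrations at 37 °C, testing selectivity against nonmalignant versus cancer cells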
# EGFR = EGFR (Homo sapiens, UniProt P00533); assay: In vitro EGFR enzyme inhibition assay (ELISA); settings: for inhibition at 10 pg/mL / inhibition at 0.0001 µg/mL / inhibition at 0.001 µg/mL / inhibition at 0.01 µg/mL: read-out: EGFR %inh; for EGFR %inh: lab report 01-11-2021
# [1] = MCF7, read-out: cytotoxicity_IC50 mcf7
# [2] = MDA-MB-231, read-out: MDA-MBA-231 IC50
# [3] = MDA-MB-231, read-out: cytotoxicity_IC50 MDA
# [4] = EGFR IC50, lab report 01-09-2021, 04 compounds, reference Erlotinib
# [5] = EGFR IC50, lab report 01-11-2021, 10 compounds
# Sequence of EGFR (P00533 25-1210): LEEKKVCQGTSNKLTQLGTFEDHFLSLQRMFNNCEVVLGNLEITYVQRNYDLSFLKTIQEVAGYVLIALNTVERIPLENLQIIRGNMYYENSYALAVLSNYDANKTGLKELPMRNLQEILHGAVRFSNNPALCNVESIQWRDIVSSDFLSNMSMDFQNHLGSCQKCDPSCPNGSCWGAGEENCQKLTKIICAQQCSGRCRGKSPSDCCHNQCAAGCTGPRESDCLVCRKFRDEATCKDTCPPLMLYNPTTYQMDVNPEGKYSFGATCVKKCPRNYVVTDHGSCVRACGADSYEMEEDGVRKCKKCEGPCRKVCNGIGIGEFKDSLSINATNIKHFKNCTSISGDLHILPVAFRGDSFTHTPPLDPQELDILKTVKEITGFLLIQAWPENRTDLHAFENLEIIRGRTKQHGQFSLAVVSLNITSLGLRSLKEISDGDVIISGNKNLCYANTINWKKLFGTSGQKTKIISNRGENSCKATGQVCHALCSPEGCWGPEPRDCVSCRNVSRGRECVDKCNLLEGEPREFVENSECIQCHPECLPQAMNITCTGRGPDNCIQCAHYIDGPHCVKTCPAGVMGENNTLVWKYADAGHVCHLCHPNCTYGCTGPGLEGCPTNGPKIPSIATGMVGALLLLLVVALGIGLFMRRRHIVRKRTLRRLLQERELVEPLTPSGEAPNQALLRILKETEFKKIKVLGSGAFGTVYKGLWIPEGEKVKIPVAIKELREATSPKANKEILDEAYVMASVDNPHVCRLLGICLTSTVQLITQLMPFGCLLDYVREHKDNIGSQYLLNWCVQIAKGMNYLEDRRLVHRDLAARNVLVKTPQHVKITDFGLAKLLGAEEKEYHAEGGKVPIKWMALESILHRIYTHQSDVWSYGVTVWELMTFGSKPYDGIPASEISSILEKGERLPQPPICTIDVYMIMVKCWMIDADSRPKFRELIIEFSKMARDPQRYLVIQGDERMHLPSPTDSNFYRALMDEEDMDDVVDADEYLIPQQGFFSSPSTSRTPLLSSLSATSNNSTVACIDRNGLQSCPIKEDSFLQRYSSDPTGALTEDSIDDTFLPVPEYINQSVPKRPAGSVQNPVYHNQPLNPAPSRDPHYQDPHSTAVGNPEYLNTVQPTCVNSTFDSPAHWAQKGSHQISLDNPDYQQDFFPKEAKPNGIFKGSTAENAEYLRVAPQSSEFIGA
Compound,IC50 at 48 h (in vitro) [µg/mL],"viability at 48 h, 0.4 ug (in vitro) [%]","viability at 48 h, 1.6 ug (in vitro) [%]","viability at 48 h, 6.25 ug (in vitro) [%]","viability at 48 h, 25 ug (in vitro) [%]","viability at 48 h, 100 ug (in vitro) [%]","IC50 (MCF-7; MCF7, read-out: MCF-7 IC50) [µM]",IC50 (MCF-7; [1]) [µg/mL],"% viability (MCF-7; MCF7, 0.4ug) [%]","% viability (MCF-7; MCF7, 1.6ug) [%]","% viability (MCF-7; MCF7, 6.3ug) [%]","% viability (MCF-7; MCF7, 25ug) [%]","% viability (MCF-7; MCF7, 100ug) [%]",IC50 (MDA-MB-231; [2]) [µM],IC50 (MDA-MB-231; [3]) [µg/mL],% viability (MDA-MB-231; 0.4ug (log conc. -0.41)) [%],% viability (MDA-MB-231; 1.6ug (log conc. 0.19)) [%],IC50 (MCF-10A) [µM],IC50 (EGFR; EGFR inhibition IC50) [nM],Percentage above Reference IC50 (potency relative to erlotinib) (EGFR; reference Erlotinib) [%],also measured
"O=C(COc1ccc2c(CCl)cc(=O)oc2c1)c1ccccc1 [Compound 5, 4-(Chloromethyl)-7-(2-oxo-2-phenylethoxy)-2H-chromen-2-one]",27.6 ± 1.35,74.4,66.7,57.6,49.9,43.5,39.5 ± 0.79,13 ± 0.79,67.523,64.281,52.844,47.217,38.104,5.8 ± 0.1,1.91 ± 0.1,61.18,50.473,83.9 ± 1.35,316 ± 6.6,54.886,% viability (MDA-MB-231; 6.25ug (log conc. 0.8)): 42.019%; % viability (MDA-MB-231; 25ug (log conc. 1.4)): 33.628%; % viability (MDA-MB-231; 100ug (log conc. 2)): 22.3344%; IC50 (EGFR; [4]): 316 nM; inhibition at 10 pg/mL (EGFR): 29%; inhibition at 0.0001 µg/mL (EGFR): 50%; inhibition at 0.001 µg/mL (EGFR): 70%; inhibition at 0.01 µg/mL (EGFR): 90%
"O=C(COc1ccc2c(CCl)cc(=O)oc2c1)c1ccc(Cl)cc1 [Compound 6, 4-(Chloromethyl)-7-(2-(4-chlorophenyl)-2-oxoethoxy)-2H-chromen-2-one]",56.6 ± 2.76,78.1,70.4,62.2,54.8,46.8,217 ± 4.77,78.7 ± 4.77,87.56,78.06,71.906,59.463,45.972,56.6 ± 1.12,20.5 ± 1.12,73.67,63.08,156 ± 2.76,154 ± 8,54.545,anti-proliferative activity against MCF-7 (in words) (MCF-7): lower activity level; % viability (MDA-MB-231; 6.25ug (log conc. 0.8)): 56.509%; % viability (MDA-MB-231; 25ug (log conc. 1.4)): 49.4083%; % viability (MDA-MB-231; 100ug (log conc. 2)): 41.124%; anti-proliferative activity against MDA-MB-231 (in words) (MDA-MB-231): lower activity level; IC50 (EGFR; [5]): 154 nM; EGFR %inh (EGFR; conc 0.01 (unit not given)): 34%; EGFR %inh (EGFR; conc 0.1 (unit not given)): 57%; EGFR %inh (EGFR; conc 1 (unit not given)): 74%; EGFR %inh (EGFR; conc 10 (unit not given)): 91%
"O=C(COc1ccc2c(COC(=O)c3ccccc3)cc(=O)oc2c1)c1ccccc1 [Compound 7, [2-Oxo-7-(2-oxo-2-phenylethoxy)-2H-chromen-4-yl]methyl benzoate]",41.9 ± 2.04,78.3,71.5,59.2,53.7,45.1,77.5 ± 1.94,32.1 ± 1.94,83.43,71.93,62.508,52.7829,40.856,56.7 ± 1.28,23.5 ± 1.28,75.96,68.64,101 ± 2.04,341 ± 19,24.633,anti-proliferative activity against MCF-7 (in words) (MCF-7): diminished the activity; % viability (MDA-MB-231; 6.25ug (log conc. 0.8)): 59.243%; % viability (MDA-MB-231; 100ug (log conc. 2)): 38.991%; anti-proliferative activity against MDA-MB-231 (in words) (MDA-MB-231): poor anti-proliferative activity; IC50 (EGFR; [5]): 333 nM; EGFR %inh (EGFR; conc 0.01 (unit not given)): 30%; EGFR %inh (EGFR; conc 0.1 (unit not given)): 42%; EGFR %inh (EGFR; conc 1 (unit not given)): 67%; EGFR %inh (EGFR; conc 10 (unit not given)): 89%
"O=C(COc1ccc2c(COC(=O)c3ccc(Cl)cc3)cc(=O)oc2c1)c1ccccc1 [Compound 9, [2-Oxo-7-(2-oxo-2-phenylethoxy)-2H-chromen-4-yl]methyl 4-chlorobenzoate]",135 ± 6.56,90.6,79.6,70.3,61.8,52.3,100 ± 2.73,45 ± 2.73,77.17,70.74,62.232,54.2277,44.25,10.4 ± 0.25,4.65 ± 0.25,–,–,301 ± 6.56,131 ± 9,64.122,anti-proliferative activity against MCF-7 (in words) (MCF-7): diminished the activity; anti-proliferative activity against MDA-MB-231 (in words) (MDA-MB-231): poor anti-proliferative activity; IC50 (EGFR; [5]): 131 nM
"COc1ccccc1C(=O)OCc1cc(=O)oc2cc(OCC(=O)c3ccccc3)ccc12 [Compound 11, [2-Oxo-7-(2-oxo-2-phenylethoxy)-2H-chromen-4-yl]methyl 2-methoxybenzoate]",79.2 ± 3.86,84.2,76.6,66.5,58.4,47.8,131 ± 3.52,58.1 ± 3.52,86.03,75.27,65.137,57.0548,45.822,61.2 ± 1.48,27.2 ± 1.48,73.69,66.71,178 ± 3.86,1830 ± 38,7.91,anti-proliferative activity against MCF-7 (in words) (MCF-7): diminished the activity; % viability (MDA-MB-231; 6.25ug (log conc. 0.8)): 58.055%; % viability (MDA-MB-231; 25ug (log conc. 1.4)): 52.2673%; % viability (MDA-MB-231; 100ug (log conc. 2)): 41.289%; anti-proliferative activity against MDA-MB-231 (in words) (MDA-MB-231): poor anti-proliferative activity; IC50 (EGFR; [4]): 1830 nM; inhibition at 10 pg/mL (EGFR): 7.8%; inhibition at 0.0001 µg/mL (EGFR): 23%; inhibition at 0.001 µg/mL (EGFR): 54%; inhibition at 0.01 µg/mL (EGFR): 76%
"CC(=O)Oc1ccc2c(COC(=O)c3ccccc3)cc(=O)oc2c1 [Compound 13, (7-Acetoxy-2-oxo-2H-chromen-4-yl)methyl benzoate]",166 ± 8.1,89.7,81.1,73.6,63.3,52.2,111 ± 2.28,37.6 ± 2.28,80.82,70.97,64.282,55.0733,40.88,30.7 ± 0.56,10.4 ± 0.56,65.76,58.55,490 ± 8.1,363 ± 20,23.14,% viability (MDA-MB-231; 6.25ug (log conc. 0.8)): 52.297%; % viability (MDA-MB-231; 25ug (log conc. 1.4)): 46.9551%; % viability (MDA-MB-231; 100ug (log conc. 2)): 38.515%; IC50 (EGFR; [5]): 364 nM
